According to ChEMBL document CHEMBL1146794, “Novel delta2-isoxazolines as group II phospholipase A2 inhibitors” (Bioorg Med Chem Lett, 2004):

Key:
[1] = Inhibitory activity against group II Phospholipase A2 (PLA2) from Vipera russelli russelli venom; set-up: species or system Daboia russelii russelii
[2] = Compound (2.5 uM) was tested for edema inducing activity of group II PLA2 (1 ug) was determined in mice footpads; assay type: functional, Daboia russelii russelii

## C[C@H]1[C@H](C)CC[C@]2(C(=O)O)CC[C@]3(C)C(=CC[C@@H]4[C@@]5(C)CC[C@H](O)C(C)(C)[C@@H]5CC[C@]43C)[C@H]12 [URSOLIC ACID]
[1]
  IC50: 2.5 nM
[2]
  Edema ratio: 102

## CCCCc1nc(C2=NOC(CC(=O)OC)C2)c(Cl)[nH]1 (stereo unspecified)
[1]
  IC50: 209 nM

## CCCCc1nc(C2=NOC(c3ccccc3)C2)c(Cl)[nH]1 (stereo unspecified)
[1]
  IC50: 142 nM

## CCCCc1nc(C2=NOC(C(=O)OCC)C2)c(Cl)[nH]1 (stereo unspecified)
[1]
  IC50: 86.2 nM
[2]
  Edema ratio: 116

## CCCCc1nc(C2=NOC(C(=O)Oc3ccccc3)C2)c(Cl)[nH]1 (stereo unspecified)
[1]
  IC50: 195 nM

## CCCCc1nc(C2=NOC(C#N)C2)c(Cl)[nH]1 (stereo unspecified)
[1]
  IC50: 96.4 nM
[2]
  Edema ratio: 120

## CCCCc1nc(C2=NOC(C(=O)OC)C2)c(Cl)[nH]1 (stereo unspecified)
[1]
  IC50: 250 nM

## CCCCc1nc(C2=NOC(CO)C2)c(Cl)[nH]1 (stereo unspecified)
[1]
  IC50: 152 nM
